From US20240181022A1, “AMURINS LYSINS, AND LYSIN-ANTIMICROBIAL PEPTIDE (AMP) CONSTRUCTS ACTIVE AGAINST GRAM-NEGATIVE BACTERIA” (priority 2021, published 2024)
Converted amounts (≈) assume the structure as drawn. Like-named read-outs stand apart in the source and are kept apart here. Where a SMILES comes first, the peptide text is derived from it. Where no end group is shown, it is not given here. [ ]: non-standard residue; d: D form.

B1: GN370: lysin-AMP construct, SEQ ID NO: 149: MIDR, FIRL and NPTH moieties N-terminal to GN202 lysin (protein)
chain: MIDRFIRLNPTHGPRRPRRPGRRAPVRTSQRGIDLIKSFEGLRLSAYQDSVGVWTIGYGTTRGVTRYMTITVEQAERMLSNDIQRFEPELDRLAKVPLNQNQWDALMSFVYNLGAANLASSTLLDLLNKGDYQGAADQFPHWVNAGGKRLDGLVKRRAAERALFLEPLS
modifications: GN370 lysin

How the values were obtained:
M. abscessus = test: MIC against MDR M. abscessus isolates; type: cell-based, Mycobacterium abscessus; details: 7 days; for activity (MIC) against M. abscessus: 5 clinical MDR strains and 1 ATCC strain, CAAT; for MIC: AST media (CAAT)
M. kansasii = test: MIC against M. kansasii; type: cell-based, Mycobacterium kansasii; details: M. kansasi (ATCC 12478); CAAT media
M. tuberculosis = type: cell-based, Mycobacterium tuberculosis
A. ruhlandii = type: cell-based, Achromobacter ruhlandii
Experimental: The MBEC (after 2-hour treatments) was determined as described in Jones and Wozniak, PsI Produced by Mucoid Pseudomonas aeruginosa Contributes to the Establishment of Biofilms and Immune Evasion, Am. Soc. Microbiol. 2017, 8(3):e00864-17. Meropenem and tobramycin were included as controls and were both poorly active, with MBEC90 values of >256 μg/mL (data not shown).

A. dolens = test: MIC by broth microdilution against A. dolens; type: cell-based, Achromobacter dolens; details: A. dolens isolates; for MIC Range: in µg/mL
Experimental: MIC values were determined using a modification of the standard broth microdilution reference method defined by the Clinical and Laboratory Standards Institute (CLSI), CLSL. 2015. Methods for Dilution Antimicrobial Susceptibility Tests for Bacteria That Grow Aerobically; Approved Standard-10th Edition. Clinical and Laboratory Standards Institute, Wayne, PA. The modification was based on the replacement of Mueller Hinton Broth with either CAA media (with and without NaCl) or CAA supplemented with 2.5% human serum. MIC is the minimum concentration of peptide sufficient to suppress at least 80% of the bacterial growth compared to control.
Based on these nine most prevalent strains, direct lytic agents, including GN370, AM1, AM2, and AM3, were evaluated against various isolates from each of the 9 strains. MICs and MBECs (Example 3) were determined, and a sputum inhibition test was conducted, as described below in Example 5.
The MICs for were determined as described below using the broth microdilution method for meropenem, GN370, AM1, AM2, and AM3. The results are shown below in Tables 8-12.

B. cenocepacia = test: Checkerboard synergy assay with meropenem against B. cenocepacia; type: cell-based, Burkholderia cenocepacia; details: for MIC (dual agent): GN370 + meropenem; for FICmin / FICmin interpretation: GN370 with meropenem
Excerpt: In some embodiments, the Chp peptides disclosed herein or active fragments thereof reduce the minimum inhibitory concentration (MIC) of an antibiotic in the presence and/or absence of human serum, pulmonary surfactant, and/or sputum, including human sputum and human sputum from a cystic fibrosis patient. Any known method to assess MIC may be used. In some embodiments, a checkerboard assay is used to determine the effect of a Chp peptide or active fragment thereof on antibiotic concentration. The checkerboard assay is based on a modification of the CLSI method for MIC determination by broth microdilution (See Clinical and Laboratory Standards Institute (CLSI), CLSI. 2015. Methods for Dilution Antimicrobial Susceptibility Tests for Bacteria That Grow Aerobically; Approved Standard-10th Edition. Clinical and Laboratory Standards Institute, Wayne, PA, which is herein incorporated by reference in its entirety and Ceri et al. 1999. J. Clin. Microbiol. 37: 1771-1776, which is also herein incorporated by reference in its entirety).
Checkerboards are constructed by first preparing columns of e.g., a 96-well polypropylene microtiter plate, wherein each well has the same amount of antibiotic diluted 2-fold along the horizontal axis. […] The Chp peptide or active fragment thereof and antibiotic dilutions are then combined, so that each column has a constant amount of antibiotic and doubling dilutions of Chp peptide, while each row has a constant amount of Chp peptide and doubling dilutions of antibiotic. Each well thus has a unique combination of Chp peptide and antibiotic. Bacteria are added to the drug combinations at concentrations of 1×10^5 GFU/ml in CAA, for example, with or without human serum or pulmonary surfactant. […] Summation fractional inhibitory concentrations (ΣFICs) are calculated for each drug and the minimum ΣFIC value (ΣFICmin) is used to determine the effect of the Chp peptide/antibiotic combination.
The synergy of GN370 with meropenem was evaluated against 3 different strains of P. aeruginosa and three different strains of B. cenocepacia.

[1] = M. abscessus strain BK51403 (ATCC 19977)
[2] = M. tuberculosis (ATCC 35817), (ADC, T) media
[3] = M. tuberculosis strain TN8109_LB (MDR), 7H9 broth, 20 days
[4] = M. tuberculosis strain TN8562_M33 (susc), 7H9 broth, 20 days
[5] = M. tuberculosis strain TN10525_LL (MDR), 7H9 broth, 20 days
[6] = M. tuberculosis strain TN10571_KY (MDR), 7H9 broth, 20 days
[7] = M. tuberculosis strain TN12657_KQ15 (IS), 7H9 broth, 20 days
[8] = M. tuberculosis strain TN13923_HD17 (susc), 7H9 broth, 20 days
[9] = M. tuberculosis strain TN18349_W738 (susc), 7H9 broth, 20 days
[10] = M. tuberculosis strain TN34503_001 (susc), 7H9 broth, 20 days
[11] = A. ruhlandii (15), 2-hour treatment

Molecule | MIC (M. abscessus; M. abscessus strain BK51402) [µg/mL] | MIC (M. abscessus; [1]) [µg/mL] | MIC (M. abscessus; M. abscessus strain BK51408) [µg/mL] | MIC (M. abscessus; M. abscessus strain BK55096) [µg/mL] | MIC (M. abscessus; M. abscessus strain BK55691) [µg/mL] | MIC (M. abscessus; M. abscessus strain BK58156) [µg/mL] | MIC (M. kansasii) [µg/mL] | MIC (M. tuberculosis; [2]) [µg/mL] | MIC (M. tuberculosis; [3]) [µg/mL] | MIC (M. tuberculosis; [4]) [µg/mL] | MIC (M. tuberculosis; [5]) [µg/mL] | MIC (M. tuberculosis; [6]) [µg/mL] | MIC (M. tuberculosis; [7]) [µg/mL] | MIC (M. tuberculosis; [8]) [µg/mL] | MIC (M. tuberculosis; [9]) [µg/mL] | MIC (M. tuberculosis; [10]) [µg/mL] | MBEC50 (A. ruhlandii) [µg/mL] | MBEC90 (A. ruhlandii) [µg/mL] | MIC50 (A. dolens) [µg/mL] | MIC90 (A. dolens) [µg/mL] | other results
CC[C@H](C)[C@H](NC(=O)[C@@H](CCCNC(=N)N)NC(=O)[C@H](Cc1ccccc1)NC(=O)CNC(=O)CNC(=O)[C@@H](CCCNC(=N)N)NC(=O)[C@H](CCSC)NC(=O)[C@@H]1CCCN1C(=O)[C@@H](CCCNC(=N)N)NC(=O)[C@H](C)NC(=O)[C@@H](CCCNC(=N)N)NC(=O)[C@H](CC(C)C)NC(=O)[C@H](CC(N)=O)NC(=O)[C@@H](CCCNC(=N)N)NC(=O)[C@@H](CCCCN)NC(=O)[C@@H](CCCCN)NC(=O)[C@@H](NC(=O)[C@H](CC(N)=O)NC(=O)[C@@H](NC(=O)[C@H](C)NC(=O)CNC(=O)[C@@H](CCCNC(=N)N)NC(=O)[C@@H](NC(=O)[C@H](Cc1ccccc1)NC(=O)[C@@H](NC(=O)[C@@H](CCCCN)NC(=O)[C@@H](CCCNC(=N)N)NC(=O)[C@H](CO)NC(=O)[C@@H](CCCCN)NC(=O)[C@@H](CCCCN)NC(=O)[C@@H](CCCCN)NC(=O)[C@H](CO)NC(=O)[C@H](CC(C)C)NC(=O)[C@@H](CCCCN)NC(=O)[C@@H](CCCNC(=N)N)NC(=O)[C@@H](CCCNC(=N)N)NC(=O)[C@@H](CCCCN)NC(=O)[C@@H](N)CCSC)[C@@H](C)CC)[C@@H](C)O)C(C)C)C(C)C)C(=O)O [AM3] (H-M[dK][dR][dR][dK]LS[dK][dK][dK]S[dR][dK]IFT[dR]GAVNV[dK][dK][dR]NL[dR]A[dR]PM[dR]GGF[dR]I-OH; N-terminus and C-terminus assumed) | 1 (≈ 0.219 µM) | 4 (≈ 0.875 µM) | 4 (≈ 0.875 µM) | 2 (≈ 0.438 µM) | 1 (≈ 0.219 µM) | 1 (≈ 0.219 µM) | 1 (≈ 0.219 µM) | 8 (≈ 1.75 µM) | 16 (≈ 3.5 µM) | 16 (≈ 3.5 µM) | 64 (≈ 14 µM) | 16 (≈ 3.5 µM) | 16 (≈ 3.5 µM) | 32 (≈ 7 µM) | 4 (≈ 0.875 µM) | 16 (≈ 3.5 µM) | 16 | 16 | 2 (≈ 0.438 µM) | 8 (≈ 1.75 µM) | activity (MIC) against M. abscessus (M. abscessus): highly active; MBEC Range (A. ruhlandii): 1 to 32 µg/mL; MIC Range (A. dolens): 0.016-16
C[C@@H](O)[C@H]1C(=O)N2C(C(=O)O)=C(S[C@@H]3CN[C@H](C(=O)N(C)C)C3)[C@H](C)[C@H]12 [meropenem, reference compound] |  |  |  |  |  |  |  |  |  |  |  |  |  |  |  |  |  |  | 2 (≈ 5.22 µM) | > 32 | MIC (alone) (B. cenocepacia; B. cenocepacia (CFS 2135)): 32 µg/mL; MIC (dual agent) (B. cenocepacia; B. cenocepacia (CFS 2135)): 32 µg/mL; MIC (alone) (B. cenocepacia; B. cenocepacia (CFS 2138)): 64 µg/mL; MIC (dual agent) (B. cenocepacia; B. cenocepacia (CFS 2138)): 64 µg/mL; MIC (alone) (B. cenocepacia; B. cenocepacia (CFS 2142)): 64 µg/mL; MIC (dual agent) (B. cenocepacia; B. cenocepacia (CFS 2142)): 32 µg/mL
MRLKMARRRYRLPRRRSRRLFSRTALRMHPRNRLRRIMRGGIRF [AM1] | 1 | 2 | 4 | 1 | 1 | 2 | 2 | 8 | 4 | 4 | 8 | 2 | 16 | 16 | 0.5 | 0.5 | 16 | 16 | 1 | 2 | activity (MIC) against M. abscessus (M. abscessus): highly active; MBEC Range (A. ruhlandii): 2 to 16 µg/mL; MIC Range (A. dolens): 0.06-4
M[dR]L[dK]MA[dR][dR][dR]Y[dR]LP[dR][dR][dR]S[dR][dR]LFS[dR]TAL[dR]MHP[dR]N[dR]L[dR][dR]IM[dR]GGI[dR]F [AM2] | 2 | 4 | 8 | 4 | 1 | 1 | 2 | 8 | 2 | 2 | 8 | 4 | 4 | 8 | 2 | 8 | 8 | 32 | 4 | 8 | MBEC Range (A. ruhlandii): 1 to 32 µg/mL; MIC Range (A. dolens): 0.016-16
B1 |  |  |  |  |  |  |  |  |  |  |  |  |  |  |  |  |  |  | 32 | > 32 | MBEC50 (A. ruhlandii; [11]): 4 µg/mL; MBEC90 (A. ruhlandii; [11]): 64 µg/mL; MBEC Range (A. ruhlandii; [11]): 4 to 64 µg/mL; MIC (alone) (B. cenocepacia; B. cenocepacia (CFS 2135)): 128 µg/mL; MIC (dual agent) (B. cenocepacia; B. cenocepacia (CFS 2135)): 64 µg/mL; FICmin (B. cenocepacia; B. cenocepacia (CFS 2135)): 1.5; FICmin interpretation (B. cenocepacia; B. cenocepacia (CFS 2135)): (Indifferent); MIC (alone) (B. cenocepacia; B. cenocepacia (CFS 2138)): 256 µg/mL; MIC (dual agent) (B. cenocepacia; B. cenocepacia (CFS 2138)): 128 µg/mL; FICmin (B. cenocepacia; B. cenocepacia (CFS 2138)): 1.5; FICmin interpretation (B. cenocepacia; B. cenocepacia (CFS 2138)): (Indifferent); MIC (alone) (B. cenocepacia; B. cenocepacia (CFS 2142)): 256 µg/mL; MIC (dual agent) (B. cenocepacia; B. cenocepacia (CFS 2142)): 128 µg/mL; FICmin (B. cenocepacia; B. cenocepacia (CFS 2142)): 1; FICmin interpretation (B. cenocepacia; B. cenocepacia (CFS 2142)): (Additive); synergy with meropenem (B. cenocepacia; three strains of B. cenocepacia): not against B. cenocepacia
